For eleven compounds, Ki and IC50 results are on record in patent publication US9540388B2, “P2X7 modulators” (Janssen Pharmaceutica NV, priority 2013, dated 2017).

In test [1] the target is T1, P2X7 (Homo sapiens (Human), UniProt Q99572). The experiment in a line: Radioligand binding, recombinant human P2X7-1321N1 cell membranes, tritiated A-804598. The following applies: Table 2, additional runs. As to the method:
(§1) P2X7 Antagonism in Recombinant Human P2X7 Cells or Recombinant Rat P2X7 Cells: (a) Ca^2+ Flux and (b) Radioligand Binding
(§2) human or rat P2X7-1321N1 cells were collected and frozen @−80° C. On the day of the experiment, cell membrane preparations were made according to standard published methods. […] The compound can be prepared as described in the literature. […] The assay was terminated by filtration (GF/B filters pre-soaked with 0.3% PEI) and washed with washing buffer (Tris-HCl 50 mM). The IC50 generated in the binding assay was corrected for tracer concentration and affinity of the tracer to derive at the affinity (Ki) of the test compounds. […] Data are analyzed and graphed on Graphpad Prism 5.

In test [2] the target is T2, rat P2X7 (Rattus norvegicus (Rat), UniProt Q64663). Nature of the test: Radioligand binding, recombinant rat P2X7-1321N1 cell membranes, tritiated A-804598. The following applies: Table 2, additional runs. Here is the method:
as §1, §2

Test [3] addresses T1, P2X7. Nature of the test: Ca2+ flux (FLIPR) in 1321N1 cells expressing recombinant human P2X7. The format is cell-based. The following applies: Table 2, additional runs; 250 μM BzATP. Here is the method:
as §1
(§3) 1321N1 cells expressing the recombinant human or rat P2X7 channel was cultured in HyQ DME/(HyClone/Dulbecco's Modified Eagle Medium) high glucose supplemented with 10% Fetal Bovine Serum (FBS) and appropriate selection marker. Cells were seeded at a density of 25000 cells/well (96-well clear bottom black walled plates) in 100 μl volume/well. On the day of the experiment, cell plates were washed with assay buffer, containing (in mM): 130 NaCl, 2 KCl, 1 CaCl2, 1 MgCl2, 10 HEPES, 5 glucose; pH 7.40 and 300 mOs. After the wash, cells were loaded with the Calcium-4 dye (Molecular Device) and incubated in the dark for 60 minutes. Test compounds were prepared at 250× the test concentration in neat DMSO. Intermediate 96-well compound plates were prepared by transferring 1.2 μL of the compound into 300 μL of assay buffer. A further 3× dilution occurred when transferring 50 μL/well of the compound plate to 100 μL/well in the cell plate. Cells were incubated with test compounds and dye for 30 minutes. […] The fluorescence change was measured 180 seconds after adding the agonist.

Test [4] deals with T2, rat P2X7. The experiment in a line: Ca2+ flux (FLIPR) in 1321N1 cells expressing recombinant rat P2X7. The format is cell-based. The following applies: Table 2, additional runs; 250 μM BzATP. Here is the method:
as §1, §3
Background: Calcium flux is commonly read through the fluorescence of an indicator in the cells.

T2 sequence (Q64663 whole entry): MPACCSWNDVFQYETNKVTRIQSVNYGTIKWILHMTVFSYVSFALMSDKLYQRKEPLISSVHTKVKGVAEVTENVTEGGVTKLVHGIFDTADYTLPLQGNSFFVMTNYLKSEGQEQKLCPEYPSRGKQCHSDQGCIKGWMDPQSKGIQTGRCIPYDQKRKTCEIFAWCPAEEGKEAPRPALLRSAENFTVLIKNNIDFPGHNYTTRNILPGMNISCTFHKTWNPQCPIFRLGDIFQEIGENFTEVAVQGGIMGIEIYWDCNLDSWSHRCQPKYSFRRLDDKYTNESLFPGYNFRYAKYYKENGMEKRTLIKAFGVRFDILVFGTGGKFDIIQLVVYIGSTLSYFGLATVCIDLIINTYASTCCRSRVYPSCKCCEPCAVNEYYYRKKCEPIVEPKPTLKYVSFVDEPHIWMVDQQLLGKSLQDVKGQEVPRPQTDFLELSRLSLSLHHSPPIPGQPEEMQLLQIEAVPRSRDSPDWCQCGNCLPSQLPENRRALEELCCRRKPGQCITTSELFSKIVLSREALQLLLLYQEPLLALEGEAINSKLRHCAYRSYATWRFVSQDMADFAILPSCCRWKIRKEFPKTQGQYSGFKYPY
T1 sequence (Q99572 whole entry): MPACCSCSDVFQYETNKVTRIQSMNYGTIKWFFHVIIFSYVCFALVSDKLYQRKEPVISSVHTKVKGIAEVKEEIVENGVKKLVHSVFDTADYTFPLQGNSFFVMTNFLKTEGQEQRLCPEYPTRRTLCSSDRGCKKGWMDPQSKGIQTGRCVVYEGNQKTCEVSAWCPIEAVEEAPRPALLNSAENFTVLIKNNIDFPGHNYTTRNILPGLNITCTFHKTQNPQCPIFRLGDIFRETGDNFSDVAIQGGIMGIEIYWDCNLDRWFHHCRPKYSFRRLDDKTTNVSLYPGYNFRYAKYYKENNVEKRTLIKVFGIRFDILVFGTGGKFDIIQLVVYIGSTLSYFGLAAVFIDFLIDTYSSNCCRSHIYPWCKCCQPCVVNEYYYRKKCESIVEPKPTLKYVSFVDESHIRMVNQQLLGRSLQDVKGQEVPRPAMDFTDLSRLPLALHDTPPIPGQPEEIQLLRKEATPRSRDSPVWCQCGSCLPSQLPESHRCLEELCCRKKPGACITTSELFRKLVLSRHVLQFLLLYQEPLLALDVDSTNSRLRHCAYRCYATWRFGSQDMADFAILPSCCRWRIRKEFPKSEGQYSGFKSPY

Turning to `O=C(c1ccnc(C(F)(F)F)c1F)N1[C@@H]2CCC[C@H]1c1nnc(-c3ccccn3)n1C2` (stereo in doubt) [Example 198, (6R,10S)-11-{[3-Fluoro-2-(trifluoromethyl)pyridin-4-yl]carbonyl}-3-pyridin-2-yl-5,6,7,8,9,10-hexahydro-6,10-epimino[1,2,4]triazolo[4,3-a]azocine], the inhibition constant Ki (commonly the equilibrium dissociation constant of an inhibitor or competing ligand from its target) at P2X7 [1] is 9.8 nM; at rat P2X7 [2] it was 6.2 nM. Moreover, the half-maximal inhibitory concentration (IC50) (usually the midpoint of a concentration-inhibition curve) on P2X7 [3] is 20.9 nM; on rat P2X7 [4] it was 327 nM.

As for `O=C(c1cccc(C(F)(F)F)c1Cl)N1[C@@H]2CCC[C@H]1c1nnc(-c3cc(C(F)(F)F)ccn3)n1C2` (stereo in doubt) [Example 196, (6R,10S)-11-{[2-Chloro-3-(trifluoromethyl)phenyl]carbonyl}-3-[4-(trifluoromethyl)pyridin-2-yl]-5,6,7,8,9,10-hexahydro-6,10-epimino[1,2,4]triazolo[4,3-a]azocine], the Ki on P2X7 [1] amounted to 21.9 nM; at rat P2X7 [2], 5.8 nM. In addition, the IC50 at P2X7 [3] is 1.6 nM; on rat P2X7 [4], 1.7 nM.

Turning to `Cc1c(C(=O)N2[C@@H]3CCC[C@H]2c2nnc(-c4ccccn4)n2C3)cccc1C(F)(F)F` (stereo in doubt) [Example 201, (6R,10S)-11-{[2-Methyl-3-(trifluoromethyl)phenyl]carbonyl}-3-pyridin-2-yl-5,6,7,8,9,10-hexahydro-6,10-epimino[1,2,4]triazolo[4,3-a]azocine], the Ki on P2X7 [1] was found to be 11.5 nM; at rat P2X7 [2], 3.2 nM. Besides, the half-inhibitory concentration (IC50) on P2X7 [3] is 14 nM; at rat P2X7 [4], 726 nM.

As to `Cc1nc(-c2nnc3n2C[C@H]2CCC[C@@H]3N2C(=O)c2cccc(C(F)(F)F)c2Cl)ccc1F` (stereo in doubt) [Example 193, (6R,10S)-11-{[2-Chloro-3-(trifluoromethyl)phenyl]carbonyl}-3-(5-fluoro-6-methylpyridin-2-yl)-5,6,7,8,9,10-hexahydro-6,10-epimino[1,2,4]triazolo[4,3-a]azocine], the inhibition constant (Ki) on P2X7 [1] was 70.8 nM; at rat P2X7 [2], 4.9 nM. For the same compound, the IC50 on P2X7 [3] amounted to 30.7 nM; at rat P2X7 [4] it was 41.1 nM.

`O=C(c1cccc(C(F)(F)F)c1Cl)N1[C@@H]2CCC[C@H]1c1nnc(-c3cccnn3)n1C2` (stereo in doubt) [Example 195, (6R,10S)-11-{[2-Chloro-3-(trifluoromethyl)phenyl]carbonyl}-3-pyridazin-3-yl-5,6,7,8,9,10-hexahydro-6,10-epimino[1,2,4]triazolo[4,3-a]azocine]: the Ki on P2X7 [1] was 20.9 nM. The IC50 was 40 nM on P2X7 [3] and more than 10000 nM at rat P2X7 [4].

`Cc1ccnc(-c2nnc3n2C[C@H]2CCC[C@@H]3N2C(=O)c2cccc(C(F)(F)F)c2Cl)c1` (stereo in doubt) [Example 194, (6R,10S)-11-{[2-Chloro-3-(trifluoromethyl)phenyl]carbonyl}-3-(4-methylpyridin-2-yl)-5,6,7,8,9,10-hexahydro-6,10-epimino[1,2,4]triazolo[4,3-a]azocine]: the inhibition constant Ki on P2X7 [1] turned out to be 14.1 nM; on rat P2X7 [2], 3.1 nM. The IC50 was 17.3 nM at P2X7 [3] and 7.4 nM on rat P2X7 [4].

With `O=C(c1ccc(Cl)c(F)c1Cl)N1[C@@H]2CCC[C@H]1c1nnc(-c3ccccn3)n1C2` (stereo in doubt) [Example 202, (6R,10S)-11-[(2,4-Dichloro-3-fluorophenyl)carbonyl]-3-pyridin-2-yl-5,6,7,8,9,10-hexahydro-6,10-epimino[1,2,4]triazolo[4,3-a]azocine], the Ki on P2X7 [1] came out at 3.9 nM; at rat P2X7 [2], 5.8 nM. Further, the half-maximal inhibitory concentration (IC50) on P2X7 [3] is 17.6 nM; at rat P2X7 [4], 462 nM.

`O=C(c1ccc(F)c(Cl)c1Cl)N1[C@@H]2CCC[C@H]1c1nnc(-c3ccccn3)n1C2` (stereo in doubt) [Example 203, (6R,10S)-11-[(2,3-Dichloro-4-fluorophenyl)carbonyl]-3-pyridin-2-yl-5,6,7,8,9,10-hexahydro-6,10-epimino[1,2,4]triazolo[4,3-a]azocine]: the inhibition constant (Ki) turned out to be 5.3 nM at P2X7 [1] and 2.2 nM on rat P2X7 [2]. Also, the half-inhibitory concentration (IC50) on P2X7 [3] amounted to 25.3 nM; on rat P2X7 [4] it was 20 nM.

In the case of `O=C(c1cccc(C(F)(F)F)c1Cl)N1[C@@H]2CCC[C@H]1c1nnc(-c3ccncn3)n1C2` (stereo in doubt) [Example 197, (6R,10S)-11-{[2-Chloro-3-(trifluoromethyl)phenyl]carbonyl}-3-pyrimidin-4-yl-5,6,7,8,9,10-hexahydro-6,10-epimino[1,2,4]triazolo[4,3-a]azocine], the inhibition constant (Ki) at P2X7 [1] was 19.1 nM; on rat P2X7 [2], 63.1 nM. Further, the IC50 was determined as 10.7 nM on P2X7 [3] and 1490 nM at rat P2X7 [4].

As to `O=C(c1ccc(F)c(C(F)(F)F)c1Cl)N1[C@@H]2CCC[C@H]1c1nnc(-c3ccccn3)n1C2` (stereo in doubt) [Example 200, (6R,10S)-11-{[2-Chloro-4-fluoro-3-(trifluoromethyl)phenyl]carbonyl}-3-pyridin-2-yl-5,6,7,8,9,10-hexahydro-6,10-epimino[1,2,4]triazolo[4,3-a]azocine], the inhibitory constant (Ki) was 10.7 nM at P2X7 [1] and 3.2 nM on rat P2X7 [2]. In addition, the values for the half-inhibitory concentration (IC50) on P2X7 [3] and on rat P2X7 [4] were […] and 10.2 nM, respectively.

Regarding `O=C(c1ccnc(C(F)(F)F)c1Cl)N1[C@@H]2CCC[C@H]1c1nnc(-c3ccccn3)n1C2` (stereo in doubt) [Example 199, (6R,10S)-11-{[3-Chloro-2-(trifluoromethyl)pyridin-4-yl]carbonyl}-3-pyridin-2-yl-5,6,7,8,9,10-hexahydro-6,10-epimino[1,2,4]triazolo[4,3-a]azocine], the inhibition constant (Ki) at P2X7 [1] was 25.1 nM; at rat P2X7 [2], 5 nM. Besides, the IC50 was 29.5 nM on P2X7 [3] and 12.7 nM at rat P2X7 [4].
